{
  "source": "paper PMC5483439",
  "about": "“The Effect of Pungent and Tingling Compounds from Piper nigrum L. on Background K^+ Currents” (Frontiers in Pharmacology, 2017)",
  "key": {"[1]": {"test_system": "background current of mouse trigeminal neurons", "experiment": "Whole-cell patch clamp on cultured mouse trigeminal neurons", "type": "cell-based", "conditions": "100 μM", "protocol": "Trigeminal ganglia neurons were isolated from Swiss CD-1 mice (Charles River Laboratories, Sulzfeld, Germany). All experiments involving animals were carried out in accordance with the European Union Community Council’s guidelines and approved by the competent state office of the Federal Land of Northrhine Westphalia (file number 87-51.04.2010.A180). At postnatal day 2–5, the mice were sacrificed by decapitation. The brain was removed, and both trigeminal ganglia were excised. The ganglia were washed in PBS+/+ (Invitrogen, Karlsruhe, Germany) and collected in Leibovitz Medium (L15, Invitrogen) on ice. The ganglia were transferred to Dulbecco’s modified essential medium (DMEM) containing 0.025% collagenase (type IA, Sigma–Aldrich). The minced ganglia were incubated for 45 min in a humidified atmosphere (37°C, 95% humidity, 6% CO2) before trituration. The cell suspension was centrifuged at 1000 rpm for 4 min at room temperature and the pellet was resuspended in F-12 medium (Invitrogen; 31331-D-MEM/F-12, GlutaMax^TM) supplemented with 10% fetal bovine serum (FBS^TM; Invitrogen), 200 U/mL penicillin and 200 U/mL streptomycin. The cell suspension (50 μL) was then plated on poly L-lysine (0.01%) coated glass coverslips (30 mm, Sarstedt, Nümbrecht, Germany), placed in cell culture dishes (35 mm) and kept in a humidified atmosphere (37°C, 95% humidity, 6% CO2) for 1 h. Subsequently, F-12 medium (2 mL) supplemented with FBS (10%), 200 U/mL penicillin and 200 U/mL streptomycin was added to each dish. The cells were kept in an incubator (37°C, 95% humidity, 6% CO2) until use.\nThe recordings were performed using the whole-cell configuration of the patch-clamp technique. The cells were maintained in an extracellular recording solution containing 140 mM NaCl, 5 mM KCl, 2 mM MgCl2, 2 mM CaCl2, 10 mM HEPES and 10 mM glucose, pH 7.4. The Ca^2+ and Na^+- free extracellular solution contained: 140 mM NMDG-Cl, 5 mM KCl, 2 mM MgCl2, 5 mM EGTA, 10 mM HEPES, pH 7.4. The patch electrodes were pulled from borosilicate glass (1.2 mm OD × 1.17 mm ID; Harvard apparatus, Edenbridge, Kent, United Kingdom) and fire polished to 2.5–4 MΩ tip resistance using a horizontal pipette puller (Zeitz Instruments, Munich, Germany) to obtain a patch of approximately 1–2 μm diameter. The pipette solution contained 140 mM KCl, 1 mM MgCl2, and 10 mM HEPES, pH 7.4. All recordings were performed at room temperature with an EPC7 amplifier (List-Medical Electronic, Darmstadt, Germany). The capacity and serial resistance were adjusted manually. The substances were applied via a custom-made manifold superfusion device. […] The data were acquired using Pulse software (HEKA, Lambrecht, Germany) and analyzed with PulseFit (HEKA, Lambrecht, Germany). Unless otherwise stated, the data are expressed as the mean ± SEM. […]"}, "hKCNK3": {"molecular_target": "T1, hKCNK3 (Homo sapiens, UniProt O14649)", "T1 construct": "expressed in transfected cells; host or cells: Xenopus laevis oocytes injected with cRNA (plasmid pIRES-CD8, gift of Dr. Fabrice Duprat)", "T1 sequence (O14649 whole entry)": "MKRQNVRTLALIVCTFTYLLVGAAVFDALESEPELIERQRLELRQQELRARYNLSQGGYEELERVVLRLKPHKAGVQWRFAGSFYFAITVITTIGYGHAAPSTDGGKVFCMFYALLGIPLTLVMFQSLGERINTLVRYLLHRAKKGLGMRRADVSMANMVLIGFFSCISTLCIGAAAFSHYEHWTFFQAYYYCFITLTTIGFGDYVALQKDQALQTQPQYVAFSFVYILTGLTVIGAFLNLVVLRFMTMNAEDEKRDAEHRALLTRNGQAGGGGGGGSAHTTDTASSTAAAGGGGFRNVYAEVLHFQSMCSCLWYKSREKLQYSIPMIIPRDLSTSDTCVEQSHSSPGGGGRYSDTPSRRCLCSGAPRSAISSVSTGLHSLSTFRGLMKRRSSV", "parameters": "method as in Beltrán et al., 2013", "conditions": "hKCNK3 in Xenopus oocytes; ref Beltrán et al., 2013; cited from earlier work"}, "tongue surface": {"test_system": "tongue surface", "parameters": "method as in Dawid et al., 2012", "conditions": "human, filter paper on tongue; ref Dawid et al., 2012; cited from earlier work"}},
  "data": [
    {"smiles": "O=C(/C=C/C=C/c1ccc2c(c1)OCO2)N1CCCCC1", "note": "[1a, piperine]", "values": [
      {"measurement": "membrane potential change in current clamp", "setting": "[1]; Na+/Ca2+-free conditions", "result": "mild depolarization"},
      {"measurement": "current inhibition when applied under acidic pH", "setting": "[1]; Na+/Ca2+-free solution, with XE-991, acidic pH, p = 0,00012", "result": "significantly decreased"},
      {"measurement": "decrease in the background current", "setting": "[1]; physiological extracellular solution, 13 of 38 neurons, <30 μm diameter", "result": "19.5 ± 1.8", "unit": "%"},
      {"measurement": "% of basal activity after saturating concentrations", "setting": "hKCNK3", "result": "46 ± 10", "unit": "%"},
      {"measurement": "pungent threshold concentration", "setting": "tongue surface", "result": 3.0, "unit": "nmol/cm^2"}
    ]}
  ]
}
